Experimental data: patent publication US20220363662A1, “COMPOUNDS AS LXR AGONISTS” (Integral Biosciences Privated Limited, priority 2021, published 2022)

Columns and labels:
LXR beta = biological target: T1, LXR beta (Homo sapiens, UniProt P55055); test: LXR beta agonist assay (Lanthascreen TR-FRET); assay type: biochemical; conditions: LXR beta-LBD 5 nM, read-out: LXR-β EC50
T1 construct: 5 μL of 4×LXR beta-LBD was added to each well (final concentration 5 nM); purchased Thermofisher PV4658
T1 sequence (P55055 222-460 limits assumed): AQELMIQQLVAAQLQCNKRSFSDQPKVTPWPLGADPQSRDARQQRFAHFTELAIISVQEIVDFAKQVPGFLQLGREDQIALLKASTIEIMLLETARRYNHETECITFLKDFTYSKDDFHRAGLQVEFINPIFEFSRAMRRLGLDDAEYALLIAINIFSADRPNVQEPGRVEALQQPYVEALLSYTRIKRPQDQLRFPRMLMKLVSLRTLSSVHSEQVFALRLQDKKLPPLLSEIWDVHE
Experimental: EC50 values of compounds against LXR beta were determined at Integral BioSciences (India) using Lanthascreen TR-FRET (Thermofisher, Cat #PV4658). Assay was performed in a 20 μL final volume in a Black 384-well plate (Corning, Cat #4511). Dose response curve for the compounds were prepared in duplicates with starting concentration at 30 μM and a three-fold titration was performed. The reaction buffer consisted of TR-FRET Coregulator Buffer G. To the compound dilution, 5 μL of 4×LXR beta-LBD was added to each well (final concentration 5 nM). An equal volume (5 μL) containing 4×Fl-D22/Tb-anti GST antibody (final concentration 100 nM/10 nM) was added to initiate the enzyme reaction and the reaction was incubated for 60 min at 22° C. after which the plates were read using BioTek Plate reader for TR-FRET every hour up to 4 hours.
Analysis was done using the standard curve by non-linear regression, variable slope inhibitor curve fits (Graph-Pad Prism) and EC50's of compounds were determined wherever possible.

HepG2 = test: Cell viability assay (resazurin) in HepG2; assay type: cell-based; conditions: Homo sapiens, 96 hr exposure
Experimental: (§1) HepG2 (ATCC® HB-8065™), hepatocellular carcinoma, A549 (ATCC® CCL-185™), lung epithelial carcinoma, MCF7 (ATCC® HTB-22™), mammary gland epithelial carcinoma, MDA-MB-231 (ATCC® HTB-26™), TNBC, MiaPaCa-2 (ATCC® CRL-1420™) & Panc-1 (ATCC® CRL-1469™), pancreatic epithelial carcinoma, HCT116 (ATCC® CCL-247™), colon epithelial carcinoma and U87MG (ATCC® HTB-14™), brain epithelial carcinoma cell lines respectively were seeded in the respective medium (DMEM, Cat #10569044 with 10% FBS, Cat #16000044; Gibco for HepG2, A549, MCF7, MDA-MB-231, MiaPaCa-2, Panc-1, HCT116 and MEM, Cat #11095080 with 10% FBS for U87MG). Cells were allowed to grow at 37° C. for 24 hr in 5% CO2 (culture conditions) in a Nuaire incubator (humidified). Serially diluted compounds (100 μl) were added to the culture plate 24 hr later and the cultures were further incubated in culture conditions for 96 hr. Experiment was terminated at the completion of 96 hr exposure to the drug by replacing the medium with 100 μl of 1 mM of resazurin (R7017; Sigma) prepared in culture medium and the plates were further incubated in culture conditions for 4 hr. Fluorescence was then measured using a multimodal plate reader (Biotek Synergy Neo) at an excitation wavelength of 535 nm and emission wavelength of 590 nm to obtain relative fluorescence units. Data analysis was done by subtracting the background fluorescence (only medium blank) value from each reading and then normalizing with the vehicle control (DMSO treated cells) to obtain percent survival/proliferation. Percent survival at different doses was used to calculate IC50 by fitting the curve to the “four-parameter variable slope logistic model” using Prism Graph Pad.

A549 = test: Cell viability assay (resazurin) in A549; assay type: cell-based; conditions: Homo sapiens, 96 hr exposure
Experimental: as §1

HCT116 = test: Cell viability assay (resazurin) in HCT116; assay type: cell-based; conditions: Homo sapiens, HCT-116; 96 hr exposure
Experimental: as §1

MDA-MB-231 = test: Cell viability assay (resazurin) in MDA-MB-231; assay type: cell-based; conditions: Homo sapiens, 96 hr exposure, read-out: MDA_MB-231 Cell IC50
Experimental: as §1

THP1 = test: Cell viability assay in THP1; assay type: cell-based; conditions: Homo sapiens, THP-1

Row | SMILES | EC50 (LXR beta) [µM] | IC50 (HepG2) [µM] | IC50 (A549) [µM] | IC50 (HCT116) [µM] | IC50 (MDA-MB-231) [µM] | IC50 (THP1) [µM]
1 | CC(C)[C@@](O)(C(=O)N1CCC2(CC1)CN(C1CCN(c3ccc(C(=O)N(C)C)c(Cl)c3)CC1)C2)C(F)(F)F (single isomer, unassigned) [Compound 1.73] | 1.41 | > 30 | – | – | – | –
2 | CN(C)C(=O)c1ccc(-c2cncc(C3=CCN(S(=O)(=O)c4ccccc4Cl)CC3)c2)cc1Cl [Compound 1.39, 2-chloro-4-(5-(1-(2-chlorophenylsulfonyl)-1,2,3,6-tetrahydropyridin-4-yl)pyridin-3-yl)-N,N-dimethylbenzamide] | – | – | > 30 | > 30 | > 30 | > 30
3 | CC(C)C(O)(C(=O)N1CCC(N2CC[C@H](Nc3ccc(C(=O)N(C)C)c(Cl)c3)C2)CC1)C(F)(F)F (stereo partly drawn) [Compound 1.40, 2-chloro-4-((3S)-1-(1-(2-hydroxy-3-methyl-2-(trifluoromethyl)butanoyl)piperidin-4-yl)pyrrolidin-3-ylamino)-N,N-dimethylbenzamide] | 23.6 | – | > 30 | > 30 | > 30 | > 30
4 | CN(C)C(=O)c1ccc(NC2CN(C3CCN(C(=O)C(C)(C)c4ccccc4)CC3)C2)cc1Cl [Compound 1.41, 2-chloro-N,N-dimethyl-4-(1-(1-(2-methyl-2-phenylpropanoyl)piperidin-4-yl)azetidin-3-ylamino)benzamide] | 5.75 | – | > 30 | > 30 | > 30 | > 30
5 | CN(C)C(=O)c1ccc(NC2CN(C3CCN(C(=O)C4(c5cccc(F)c5)CCC4)CC3)C2)cc1Cl [Compound 1.42, 2-chloro-4-(1-(1-(1-(3-fluorophenyl)cyclobutanecarbonyl)piperidin-4-yl)azetidin-3-ylamino)-N,N-dimethylbenzamide] | 3.09 | – | > 30 | 15.1 | 16.1 | > 30
6 | CC(C)C(O)(C(=O)N1CCC(N2CC(Nc3ccc(C(=O)N(C)C)c(Cl)c3)C2)CC1)C(F)(F)F (centres unmarked) [Compound 1.43, 2-chloro-4-(1-(1-(2-hydroxy-3-methyl-2-(trifluoromethyl)butanoyl)piperidin-4-yl)azetidin-3-ylamino)-N,N-dimethylbenzamide] | 4.68 | – | > 30 | > 30 | > 30 | > 30
7 | CN(C)C(=O)c1ccc(NC2CN(C3CCN(C(=O)C4(c5ccccc5)CCC4)CC3)C2)cc1Cl [Compound 1.48, 2-chloro-N,N-dimethyl-4-(1-(1-(1-phenylcyclobutanecarbonyl)piperidin-4-yl)azetidin-3-ylamino)benzamide] | – | – | 19.8 | 12.2 | > 30 | > 30
8 | CN(C)C(=O)c1ccc(N[C@@H]2CCCN(C3CCN(C(=O)[C@](O)(c4ccccc4)C(F)(F)F)CC3)C2)cc1Cl [Compound 1.71, 2-chloro-N,N-dimethyl-4-((R)-1′-((R)-3,3,3-trifluoro-2-hydroxy-2-phenylpropanoyl)-1,4′-bipiperidin-3-ylamino)benzamide] | 1.18 | > 29.4 | – | – | – | –
9 | CN(C)C(=O)c1ccc(O[C@@H]2CCN(C3CCN(C(=O)[C@](O)(c4ccccc4)C(F)(F)F)CC3)C2)cc1Cl [Compound 1.72, 2-chloro-N,N-dimethyl-4-((R)-1-(1-((R)-3,3,3-trifluoro-2-hydroxy-2-phenylpropanoyl)piperidin-4-yl)pyrrolidin-3-yloxy)benzamide] | 5.37 | > 30 | – | – | – | –
10 | CN(C)C(=O)c1ccc(N2CC3(CCN(C4CCN(C(=O)[C@](O)(c5ccccc5)C(F)(F)F)CC4)CC3)C2)cc1Cl [Compound 1.75, 2-chloro-N,N-dimethyl-4-(7-(1-((R)-3,3,3-trifluoro-2-hydroxy-2-phenylpropanoyl)piperidin-4-yl)-2,7-diazaspiro[3.5]nonan-2-yl)benzamide] | > 30 | > 30 | – | – | – | –
11 | CN(C)C(=O)c1ccc(O[C@H]2CCN(C3CCN(C(=O)[C@](O)(c4ccccc4)C(F)(F)F)CC3)C2)cc1Cl [Compound 1.76, 2-chloro-N,N-dimethyl-4-((S)-1-(1-((R)-3,3,3-trifluoro-2-hydroxy-2-phenylpropanoyl)piperidin-4-yl)pyrrolidin-3-yloxy)benzamide] | > 29.8 | > 30 | – | – | – | –
12 | CC(C)C(O)(C(=O)N1CCC(N2CCC3(CC2)CN(c2ccc(C(=O)N(C)C)c(Cl)c2)C3)CC1)C(F)(F)F (centres unmarked) [Compound 1.78, 2-chloro-4-(7-(1-(2-hydroxy-3-methyl-2-(trifluoromethyl)butanoyl)piperidin-4-yl)-2,7-diazaspiro[3.5]nonan-2-yl)-N,N-dimethylbenzamide] | > 30 | > 30 | – | – | – | –
13 | CN(C)C(=O)c1ccc(N2CCC(N3CC4(CCN(C(=O)[C@](O)(c5ccccc5)C(F)(F)F)CC4)C3)CC2)cc1Cl [Compound 1.79, 2-chloro-N,N-dimethyl-4-(4-(7-((R)-3,3,3-trifluoro-2-hydroxy-2-phenylpropanoyl)-2,7-diazaspiro[3.5]nonan-2-yl)piperidin-1-yl)benzamide] | 4.3 | 26.6 | – | – | – | –
14 | O=C(NCC(F)F)c1ccc(NC2CN(C3CCN(C(=O)C(O)(c4cccc(Cl)c4)C(F)(F)F)CC3)C2)cc1Cl (centres unmarked) [Compound 1.130, 2-chloro-4-((1-(1-(2-(3-chlorophenyl)-3,3,3-trifluoro-2-hydroxypropanoyl)piperidin-4-yl)azetidin-3-yl)amino)-N-(2,2-difluoroethyl)benzamide] | 1.57 | – | – | – | – | –
15 | O=C(c1ccc(NC2CN(C3CCN(C(=O)C(O)(c4cccc(Cl)c4)C(F)(F)F)CC3)C2)cc1Cl)N1CC(F)(F)C1 (centres unmarked) [Compound 1.131, 1-(4-(3-((3-chloro-4-(3,3-difluoroazetidine-1-carbonyl)phenyl)amino)azetidin-1-yl)piperidin-1-yl)-2-(3-chlorophenyl)-3,3,3-trifluoro-2-hydroxypropan-1-one] | 1.79 | – | – | – | – | –
16 | O=C(c1ccc(NC2CN(C3CCN(C(=O)C(O)(c4cccc(Cl)c4)C(F)(F)F)CC3)C2)cc1Cl)N1CCC(F)(F)C1 (centres unmarked) [Compound 1.132, 1-(4-(3-((3-chloro-4-(3,3-difluoropyrrolidine-1-carbonyl)phenyl)amino)azetidin-1-yl)piperidin-1-yl)-2-(3-chlorophenyl)-3,3,3-trifluoro-2-hydroxypropan-1-one] | 0.61 | – | – | – | – | –
17 | O=C(c1ccc(NC2CN(C3CCN(C(=O)C(O)(c4cccc(Cl)c4)C(F)(F)F)CC3)C2)cc1Cl)N1CCC(F)(F)CC1 (centres unmarked) [Compound 1.133, 1-(4-(3-((3-chloro-4-(4,4-difluoropiperidine-1-carbonyl)phenyl)amino)azetidin-1-yl)piperidin-1-yl)-2-(3-chlorophenyl)-3,3,3-trifluoro-2-hydroxypropan-1-one] | 0.995 | – | – | – | – | –
18 | CC(=O)N1CCN(C(=O)c2ccc(NC3CN(C4CCN(C(=O)C(O)(c5cccc(Cl)c5)C(F)(F)F)CC4)C3)cc2Cl)CC1 (centres unmarked) [Compound 1.134, 1-(4-(3-((4-(4-acetylpiperazine-1-carbonyl)-3-chlorophenyl)amino)azetidin-1-yl)piperidin-1-yl)-2-(3-chlorophenyl)-3,3,3-trifluoro-2-hydroxypropan-1-one] | 0.86 | – | – | – | – | –
